For one molecule, EC50 results are on record in patent publication US8815928B2, “Hepatitis C virus inhibitors” (priority 2009, dated 2014).

For the assay, the system named is HCV 1b genotype replicon. Put plainly: HCV genotype-1b replicon assay (qRT-PCR or luciferase). Format: cell-based. Conditions: Hepatitis C virus, read-out: Genotype-1b replicon EC50 Range. The text has this:
HCV replicon cell lines (kindly provided by R. Bartenschlager) isolated from colonies as described by Lohman et. al. (Lohman et al. (1999) Science 285: 110-113, expressly incorporated by reference in its entirety) and used for all experiments. The HCV replicon has the nucleic acid sequence set forth in EMBL Accession No.: AJ242651, the coding sequence of which is from nucleotides 1801 to 8406.
The coding sequence of the published HCV replicon was synthesized and subsequently assembled in a modified plasmid pBR322 (Promega, Madison, Wis.) using standard molecular biology techniques. […]
EC50 values of single agent compounds and combinations were determined by HCV RNA detection using quantitative RT-PCR, according to the manufacturer's instructions, with a TAQMAN® One-Step RT-PCR Master Mix Reagents Kit (Cat# AB 4309169, Applied Biosystems) on an ABI Model 7500 thermocycler. The TaqMan primers used for detecting and quantifying HCV RNA were obtained from Integrated DNA Technologies. HCV RNA was normalized to GAPDH RNA levels in drug-treated cells, which was detected and quantified using the Human GAPDH Endogenous Control Mix (Applied Biosystems, AB 4310884E). […] Chemical agent cytotoxicity was evaluated using an MTS assay according to the manufacturer's directions (Promega). […]
A general note: Replicon systems follow genome replication, usually without infectious particles.

`COC(=O)N[C@H](C(=O)N1CCC[C@H]1C(=O)Nc1ncc(-c2ccc3cc(-c4cnc([C@@H]5CCCN5C(=O)[C@@H](NC(=O)OC)C(C)C)[nH]4)ccc3c2)cn1)C(C)C` [Compound 348]: the EC50 lay in the range of 1 to 10 nM.

By EC50 is commonly meant the concentration giving half of the maximal effect.
